EP0303437A2, “Platinum triamine compounds containing nucleotides or nucleosides as antitumor agents” (ENGELHARD CORPORATION, priority 1987, dated 1989)
“And” between values parts separate entries of the source, which are not always exact repeats. Identical values can stand only once.

Legend:
Sarcoma 180 Ascites = Sarcoma 180 Ascites (S180a) antitumor screening; format: in vivo, Female CFW mice; conditions: for %ILS: ILS ≧ 50% indicates activity; for Surv: survivors per group of 6 mice at twice the MST of controls
Procedure: (§1) Each of the compounds was evaluated in the Sarcoma 180 Ascites screen and at least some of the compounds were also evaluated in the L1210 Leukemia tumor models.
(§2) L1210 screening was conducted according to a published method. […] Female CDF₁ mice (16 - 22 g) were implanted with 1 x 10⁶ tumor cells ip on day zero. Compounds were administered in 0.5 mL water ip on day one. Groups of 6 mice were used for each dose. A control group of mice received only tumor and 0.5 mL water. A positive control group received tumor and 8 mg/kg cisplatin in 0.5 mL 0.15 M NaCl. The test was terminated after three times the mean survival time (MST) of the control group, surviving mice were counted as dying on that day. Activity was determined based on the percent increase in MST of test mice over controls (%ILS). […] The tumor line was maintained through weekly transfer of 5 x 10⁴ cells in DBA/2 mice.
Female CFW mice (18 - 25 g) were implanted with 2 x 10⁶ cells ip on day zero. Compounds were administered in 0.5 mL water ip on day one. Groups of 6 mice were used for each test dose as well as controls as defined above. The test was run for twice the MST of the control group, with survivors counted as dying on that day. An ILS of ≧ 50% indicates activity. The tumor line was maintained through weekly transfer of 4 x 10⁶ cells in CFW mice.

L1210 Leukemia = L1210 Leukemia antitumor screening; format: in vivo, Female CDF₁ mice; conditions: for %ILS: ILS ≧ 25% represents activity; for Surv: survivors per group of 6 mice at three times the MST of controls
Procedure: as §1, §2

[1] = Dose 10 mg/kg ip in water on day one
[2] = Dose 20 mg/kg ip in water on day one
[3] = Dose 40 mg/kg ip in water on day one
[4] = Dose 80 mg/kg ip in water on day one
[5] = Dose 160 mg/kg ip in water on day one
[6] = Dose 320 mg/kg ip in water on day one
[7] = 8 mg/kg cisplatin in 0.5 mL 0.15 M NaCl, survivors per 6 mice, one value per experiment

Compound	%ILS (Sarcoma 180 Ascites; [1]) [%]	Surv (Sarcoma 180 Ascites; Dose 10 mg/kg ip)	%ILS (Sarcoma 180 Ascites; [2]) [%]	Surv (Sarcoma 180 Ascites; Dose 20 mg/kg ip)	%ILS (Sarcoma 180 Ascites; [3]) [%]	Surv (Sarcoma 180 Ascites; Dose 40 mg/kg ip)	%ILS (Sarcoma 180 Ascites; [4]) [%]	Surv (Sarcoma 180 Ascites; Dose 80 mg/kg ip)	%ILS (Sarcoma 180 Ascites; [5]) [%]	Surv (Sarcoma 180 Ascites; Dose 160 mg/kg ip)	%ILS (Sarcoma 180 Ascites; [6]) [%]	Surv (Sarcoma 180 Ascites; Dose 320 mg/kg ip)	%ILS (L1210 Leukemia; [1]) [%]	Surv (L1210 Leukemia; Dose 10 mg/kg ip)	%ILS (L1210 Leukemia; [2]) [%]	Surv (L1210 Leukemia; Dose 20 mg/kg ip)	%ILS (L1210 Leukemia; [3]) [%]	Surv (L1210 Leukemia; Dose 40 mg/kg ip)	%ILS (L1210 Leukemia; [4]) [%]	Surv (L1210 Leukemia; Dose 80 mg/kg ip)	other results
N.N.Nc1ccn(C2OC(CO)C(O)C2O)c(=O)n1.O=[N+]([O-])[O-].[Cl-].[Pt+2] [cis-[Pt(NH₃)₂(1-β-D-arabinofuranosylcytosine)Cl]NO₃]	-12	0/6	-3	0/6	2	0/6	42	2/6	51	1/6	45	2/6	-22	0/6	-8	0/6	0	0/6	6	0/6	%ILS (L1210 Leukemia; [5]): 10%; Surv (L1210 Leukemia; Dose 160 mg/kg ip): 0/6; %ILS (L1210 Leukemia; [6]): 10%; Surv (L1210 Leukemia; Dose 320 mg/kg ip): 0/6
N.N.Nc1ccn(C2CC(O)C(CO)O2)c(=O)n1.[Cl-].[Cl-].[Pt+2] (stereo not drawn) [cis-[Pt(NH₃)₂(2′-deoxycytidine)Cl]Cl]	10	0/6	34	0/6	61	2/6	85	3/6	76	4/6	51	1/6	–	–	–	–	–	–	–	–	–
Nc1ccn(C2OC(CO)C(O)C2O)c(=O)[n+]1[Pt]([NH2])([NH2])[Cl].O=[N+]([O-])[O-] (stereo not drawn) [cis-[Pt(NH₃)₂(cytidine)Cl]NO₃]	6	0/6	1	0/6	-4	0/6	-7	0/6	8	0/6	30	0/6	–	–	–	–	–	–	–	–	–
Nc1nc2c(c(=O)[nH]1)[n+]([Pt]([NH2])([NH2])[Cl])cn2C1OC(CO)C(O)C1O.O=[N+]([O-])[O-] (stereo not drawn) [cis-[Pt(NH₃)₂(guanosine)Cl]NO₃]	2	0/6	15	1/6	23	0/6	16	1/6	79	3/6	-45	1/6	-24	0/6	-4	0/6	-4	0/6	2	0/6	%ILS (L1210 Leukemia; [5]): 8%; Surv (L1210 Leukemia; Dose 160 mg/kg ip): 0/6; %ILS (L1210 Leukemia; [6]): -26%; Surv (L1210 Leukemia; Dose 320 mg/kg ip): 0/6
cis-[Pt(NH₃)₂(2′-deoxycytidine)Cl]NO₃	–	–	–	–	–	–	–	–	–	–	–	–	12	0/6	23	0/6	26	0/6	44	0/6	%ILS (L1210 Leukemia; [5]): 41%; Surv (L1210 Leukemia; Dose 160 mg/kg ip): 0/6; %ILS (L1210 Leukemia; [6]): 59%; Surv (L1210 Leukemia; Dose 320 mg/kg ip): 0/6
cis-[Pt(NH₃)₂(2′-deoxyguanosine)Cl]Cl	2	0/6	15	1/6	76	4/6	88	4/6	85	4/6	6	2/6	–	–	–	–	–	–	–	–	–
cis-[Pt(NH₃)₂Cl₂] [Positive Control, reference compound]	–	–	–	–	–	–	–	–	–	–	–	–	–	–	–	–	–	–	–	–	Positive Control %ILS (Sarcoma 180 Ascites; 8 mg/kg cisplatin in 0.5 mL 0.15 M NaCl, one value per experiment, run with the compound of that table section): 86% and 54% and 82% and 59%; Positive Control Surv (Sarcoma 180 Ascites; [7]): 4/6 and 0/6 and 3/6; Positive Control Surv (L1210 Leukemia; [7]): 0/6
